These results are taken from PMC5428058, “Local delivery of novel MRTF/SRF inhibitors prevents scar tissue formation in a preclinical model of fibrosis” (Scientific Reports, 2017).

Data set [1] deals with New Zealand white rabbits. In words: rabbit glaucoma filtration surgery model of scar tissue formation, clinical end-points. Type of data set: in vivo. The source says: 24 female New Zealand white rabbits (2–2.4 kg, 12—14 weeks, Highgate, UK) underwent experimental glaucoma filtration surgery to the left eye under general anaesthesia, [28]. A superonasal fornix-based conjunctival flap was raised behind the limbus and a micro-vitreoretinal blade (20 gauge, 0.90 mm, Surgistar USA) was used to make a partial thickness scleral tunnel to the corneal stroma. A 22 gauge, 25 mm intravenous cannula was passed through the tunnel and the needle was removed once it was visible in the cornea. The cannula was advanced into the mid-pupillary area, trimmed at its scleral edge and fixed to the scleral surface using a 10–0 nylon suture (Alcon, USA). The conjunctival incision was closed using two interrupted 10–0 nylon sutures. In a randomised, prospective, single-masked observer study, the rabbits received either intraoperative 0.2 mg/ml mitomycin-C (MMC) [N = 6], or postoperative subconjunctival injections (100 μl) of 100 μM CCG-203971 [N = 6] or 100 μM CCG-222740 [N = 6] or vehicle control [N = 6] daily for the first nine days followed by twice weekly for three weeks, [33]. CCG-222740 and CCG-203971 were dissolved in 100% DMSO (Sigma, UK) at 10 mM and then diluted to 100 μM with sterile PBS. The same volume of DMSO was diluted with PBS for the vehicle control. For the MMC-treated group, a small corneal light shield sponge was soaked in 1 ml of 0.2 mg/ml MMC and applied over the conjunctiva for 3 minutes, and the area was then thoroughly washed with 50 ml of physiologic balanced salt solution (Alcon Laboratories, Inc., Fort Worth, TX). All the postoperative subconjunctival injections were given at the same site by a single-masked researcher.
(§1) The animals were evaluated twice weekly by a single-masked researcher. Bleb width and length were measured using calipers and intraocular pressures (IOP) were measured using a tonovet (Icare). The primary efficacy end-point was bleb survival as this is indicative of the long-term opening of the filtration pathway created during surgery. Bleb failure was defined as the appearance of a flat, scarred, and vascularised bleb associated with a deep anterior chamber. IOP survival, defined as when the intraocular pressure remains below the baseline IOP measurement, and bleb area were used as secondary end-points. Conjunctival vascularity was graded on a scale of 0 to 3 (0: avascular, 1: normal, 2: hyperaemic, 3: very hyperaemic).

In data set [2] the test system is New Zealand white rabbits. The experiment in a line: local and systemic toxicity after glaucoma filtration surgery. Type of data set: in vivo. The settings on record: rabbit. Here is the method: as §1
For the Ki67 staining, the sections were dewaxed, rehydrated, and microwaved for 15 minutes in sodium citrate buffer (pH 6) for antigen retrieval. After incubating in 1.6% hydrogen peroxide followed by 10% normal horse serum, the sections were incubated in mouse anti-Ki67 (M7248, Dako) diluted 1 in 25 in 1% BSA/PBS for 1 hour at room temperature. The sections were then incubated in biotinylated horse anti-mouse IgG (Vector) and Avidin-Biotin complex (Vector), developed in DAB (Vector), and counterstained in haematoxylin.
All animals were carefully evaluated for any signs of ocular or systemic toxicity during the study. At day 30, 100 µl of aqueous, 1 ml of vitreous, and 1 ml of venous blood were sampled on the rabbit eyes receiving CCG-222740 or CCG-203971 or vehicle control. The venous blood samples were left to clot for 30 minutes at room temperature, spun at 4000 rpm for 15 minutes at 4 °C, and the serum was collected as the supernatant. Samples were extracted in acetonitrile and the levels of CCG-222740 and CCG-203971 were measured in the aqueous, vitreous, and serum using liquid chromatography/mass spectrometry (LC/MS) in the Metabolomics Core at Michigan State University (East Lansing, MI).

As to `CO[C@@]12[C@H](COC(N)=O)C3=C(C(=O)C(C)=C(N)C3=O)N1C[C@@H]1N[C@@H]12` [MMC, mitomycin-C, reference compound], in data set [1], the “bleb area compared to vehicle control” value is listed as “significantly larger”. Besides, in data set [1] (CCG compounds 100 μM subconjunctival, MMC 0.2 mg/ml intraoperative, vehicle 14 days), the “mean day of bleb failure” value is 28.8 days. Moreover, in data set [1] (versus vehicle control or baseline), the “intraocular pressure (IOP)” value is reported as “significantly lower”. In addition, in data set [2] (day 30), the “Ki67 positive cells in the conjunctival epithelium” value was “markedly reduced the number of Ki67 positive cells”. Besides, in data set [2] (in vivo), the conjunctival vascularity result was “thin avascular blebs” and the “local toxicity, conjunctival epithelium” value is “caused disruption of the epithelial cell layer”.
